The values that follow come from patent US4735961A, “Oxazoles and thiazoles containing an aminohydroxypropoxyphenyl moiety” (Merck & Co., Inc., priority 1985, dated 1988).

Structures are written as SMILES.

The subject of this experiment is β2 : β1 receptors. Kind of experiment: cardioselectivity, β2:β1 ratio (pulmonary versus cardiac effect, guinea pig trachea versus atria). Format: cell-based. As to conditions: ratio of pulmonary (β2) to cardiac (β1) effect; over 1 = cardioselective. The text has this: Expressed in different terms, a smaller amount of a compound of the invention is required to block isoproterenol-induced elevation in heart rate than is required to block the isoproterenol-induced relaxation of the bronchi. This cardioselectivity factor can be expressed as the ratio of ED50 for pulmonary effect (β2):ED50 for cardiac effect (β1). Where the β2 :β1 ratio is over 1, then the compound would be considered to have cardioselective activity.
In the case of `OC(CNC1CC1)COc1ccc(-c2nccs2)cc1` (stereo not drawn) [Example 3, 2-[p-(3-Cyclopropylamino-2-hydroxypropoxy)phenyl]thiazole], the “β2 :β1” value is given as 85. The same measure for `COc1ccc(CCNCC(O)COc2ccc(-c3ncco3)cc2)cc1OC` (stereo not drawn) [Example 1, 2-p-[3-(3,4-Dimethoxyphenethylamino)-2-hydroxypropoxy]phenyl oxazole]: 19; for `COc1ccc(CCNC[C@H](O)COc2ccc(-c3nccs3)cc2)cc1OC` [Example 2, (S) 2-p-[3-(3,4-Dimethoxyphenylethyl)amino-2-hydroxypropoxy]phenyl thiazole]: 813.
